Experimental data: patent publication US20220062299A1, “USE OF GLUCOCORTICOID STEROIDS IN PREVENTING AND TREATING CONDITIONS OF MUSCLE WASTING, AGING AND METABOLIC DISORDER” (NORTHWESTERN UNIVERSITY, priority 2018, published 2022)

Columns and labels:
[1] = test system: mdx; Dysf-null; Sgcg-null mice; experiment: Once-weekly glucocorticoids in three murine models of muscle disease; format: in vivo, mouse; conditions: 1 mg/kg once-weekly, contrary to daily dosing
From the text: Glucocorticoid steroids are widely prescribed drugs for chronic inflammatory conditions, and their daily intake generally correlates with muscle wasting and weakness, osteoporosis, obesity and metabolic disorders. […] (Quattrocelli et al, J Clin Invest 2017; Quattrocelli et al, Am J Pathol 2017; Quattrocelli et al., JCI Insight. 2019 Dec. 19; 4(24). pii: 132402. doi: 10.1172/jci.insight.132402).

[2] = test system: isolated dystrophic myofibers; experiment: 2-NBDG uptake assay in live myofibers; format: in vivo, mouse; conditions: mdx mice; weekly prednisone
Experimental: 2-NBDG uptake assay and glycemia/lactate monitoring. 2-NBDG uptake assay in live myofibers was conducted adapting previously reported conditions (Zou et al., 2005). FDB muscles were collected and carefully treated with collagenase type II and hand pipetting to liberate single myofibers, following reported procedures (Demonbreun and McNally, 2015). Myofibers from two FDB muscles were collected in 1 ml Ringer's solution (for 1 l, 7.2 g NaCl, 0.17 g CaCl2, 0.37 g KCl; pH, 7.4). 200 μl of myofiber suspension were dispensed per well of chambered coverglass (#155382; Thermo Fisher, Waltham, Mass.) and imaged as baseline condition for both transmitted light (1 ms integration) and green fluorescent channels (100 ms integration) at the Zeiss Axio Observer A1 microscope, using 20× short-range objective and the ZEN 2 software (version 2011; Zeiss, Jena, Germany). […] 2-NBDG uptake was quantitated as relative fluorescent units, calculated as intra-myofiber fluorescence after incubation subtracted of average baseline fluorescence. Fluorescence intensity was quantitated through serial analysis of acquired images (3 areas of approximately 85 μm^2 were analyzed for average fluorescence value per myofiber; >10 myofibers were analyzed per mouse) with ImageJ software (Schneider et al., 2012). […]

mdx mice = experiment: Dosing of metabolic and endocrine biomarkers in blood, serum and tissues, mdx mice, long-term (40 weeks) weekly prednisone; format: in vivo
Dysf-null mice = experiment: Dosing of metabolic and endocrine biomarkers in blood, serum and tissues, Dysf-null mice, 32 weeks weekly prednisone; format: in vivo
Experimental: Animal handling and steroid regimens. Mice were housed in a pathogen-free dedicated vivarium in accordance with Institutional Animal Care and Use Committee (IACUC) guidelines. Euthanasia was performed through carbon dioxide inhalation followed by cervical dislocation and heart removal. All methods using living animals in this study were performed in ethical accordance with the American Veterinary Medical Association (AVMA) and under protocols fully approved by both the Institutional Animal Care and Use Committee (IACUC) at Northwestern University Feinberg School of Medicine (protocol number ISO00000761). Consistent with the ethical approvals, all efforts were made to minimize suffering. Mice were fed ad libitum with Mouse Breeder Sterilizable Diet (#7904; Harlan Teklad, Indianapolis, Ind.) and maintained on a 12-hour light/dark cycle. mdx mice from the DBA/2J background were obtained from the Jackson Laboratory (Bar Harbor, Me.; stock #013141) and interbred. Male mice were used for reported experiments. Age at start was approximately 6 months for short-term experiments, approximately 6 weeks for long-term experiments. Dysferlin-null (Dysf-null) mice from the 129T2/SvEmsJ background were previously characterized (Demonbreun et al., 2011; Demonbreun et al., 2014). Age at start was approximately 9 months for long-term experiments. For experiments with Dysf-null and wildtype mice, both females and males (approximately 1:1 ratio) were randomized in treatment groups. […] Dosing was based on weekly weight measurements (1 mg/kg body weight, (Sali et al., 2012)) in 100 μl total PBS volume per dose. […] On injection days, stock solutions stored at −20° C. were diluted into sterile Eppendorf tubes containing sterile phosphate buffered saline (PBS) (#14190; Thermo Fisher, Waltham, Mass.). Puromycin (cat #A1113803, Thermo Scientific, Waltham, Mass.) was administered i.p. as 0.040 μmol/body g, and tissues were snap-frozen 30 minutes after injection. Sterile BD Micro-Fine IV Insulin Syringes (#14-829-1A; Fisher Scientific, Waltham, Mass.) were used to inject the intraperitoneal cavity of non-sedated animals. All animal analyses both during treatment and at endpoint were conducted blinded to treatment groups.
Dosing of metabolic and endocrine biomarkers. Glycogen was quantitated using the Glycogen Assay Kit (#ab65620; Abcam, Cambridge, Mass.) from approximately 25 mg frozen-pulverized whole tissue, following manufacturer's instructions and internal standards for calculating μg/mg values. For measurement of whole-tissue ATP/NAD^+ levels, approximately 25 mg frozen-pulverized tissue was extracted in 10% perchloric acid and neutralized in 0.75 M K2CO3, as previously described (Ramsey et al., 2009). NAD+ and ATP were measured by high-pressure liquid chromatography (HPLC) with Shimadzu LC-20A pump (Shimadzu Scientific Instr Inc, Addison, Ill.) and UV-VIS detector, using a Supelco LC-18-T column (15 cm×[…]; #58970-U; Millipore-Sigma, St Louis, Mo.). […] Corticosterone was measured in mouse serum and cortisol was measured in human serum using dedicated ELISA kits (#ADI-900-097, Enzo Life Science, Farmingdale, N.Y.; #K7430-100, BioVision, Milpitas, Calif.) according to manufacturer's instructions and internal standards to calculate ng/ml values. Insulin levels were quantitated in mouse and human serum with species-specific ELISA kits (#10-1247-01 (mouse-specific); #10-1113-01 (human-specific); Mercodia, Uppsala, Sweden), following manufacturer's instructions and internal standards to calculate ng/ml values. Free fatty acids were quantitated using Enzychrom Free Fatty Acid Assay kit (#EFFA-100; BioAssay Systems, Hayward, Calif.), following kit's instructions and standards to calculate μM (serum) and nmol/mg (tissue) values.

[3] = weekly prednisone, mean ± s.e.m

C[C@]12C=CC(=O)C=C1CC[C@@H]1[C@@H]2C(=O)C[C@@]2(C)[C@H]1CC[C@]2(O)C(=O)CO [prednisone, Prednisone]
muscle force and mass [1]: improved | myogenic glucose uptake (2-NBDG in isolated myofibers) [2]: enhanced | ATP, NAD+, and glycogen in muscle and blood lactate (mdx mice): increase | BCAA utilization in muscle (Dysf-null mice; weekly prednisone): improved | endpoint levels of ATP, NAD+, and glycogen in muscle and heart (Dysf-null mice; weekly prednisone): increased | fasting glycemia (Dysf-null mice; weekly prednisone 1 mg/kg i.p., mean ± s.e.m): 109 ± 3.17 mg/dL | resting lactate (Dysf-null mice; [3]): 3.36 ± 0.21 mM | serum BCAA (Dysf-null mice; [3]): 419 ± 9.95 µM | serum corticosterone (Dysf-null mice; [3]): 143 ± 5.2 ng/mL | serum creatine kinase (Dysf-null mice; [3]): 1.31 ± 0.04 U/ml | serum free fatty acids (Dysf-null mice; [3]): 475 ± 9.18 µM | serum β-hydroxybutyrate (Dysf-null mice; [3]): 323 ± 9.61 µM | tissue BCAA, diaphragm (Dysf-null mice; [3]): 45.4 ± 1.06 nmol/mg | tissue BCAA, heart (Dysf-null mice; [3]): 0.91 ± 0.03 nmol/mg | tissue BCAA, omental fat (Dysf-null mice; [3]): 24.5 ± 0.8 nmol/mg | tissue BCAA, quadriceps (Dysf-null mice; [3]): 90.9 ± 2.58 nmol/mg | tissue free fatty acids, diaphragm (Dysf-null mice; [3]): 0.753 ± 0.07 nmol/mg | tissue free fatty acids, heart (Dysf-null mice; [3]): 0.438 ± 0.05 nmol/mg | tissue free fatty acids, omental fat (Dysf-null mice; [3]): 3.49 ± 0.38 nmol/mg | tissue free fatty acids, quadriceps (Dysf-null mice; [3]): 1.05 ± 0.06 nmol/mg | tissue β-hydroxybutyrate, diaphragm (Dysf-null mice; [3]): 26.5 ± 2.11 nmol/mg | tissue β-hydroxybutyrate, heart (Dysf-null mice; [3]): 11.9 ± 0.51 nmol/mg | tissue β-hydroxybutyrate, omental fat (Dysf-null mice; [3]): 30.2 ± 0.85 nmol/mg | tissue β-hydroxybutyrate, quadriceps (Dysf-null mice; [3]): 43.8 ± 2.23 nmol/mg
